Measurements as given in patent US7560227B2, “Biomarkers of vulnerable atherosclerotic plaques and methods of use” (University of Massachusetts, priority 2005, dated 2009).
Where a SMILES comes first, the peptide text is derived from it. Bridges are numbered along the chain shown (N, C = ends). Where no end group is shown, it is not given here.

Columns and labels:
myeloperoxidase [1] = molecular target: T1, myeloperoxidase (Homo sapiens, UniProt P05164); assay: SE-HPLC (Superose-12) evaluation of twenty-three mer peptide binding to myeloperoxidase; details: for Shift to a retention time associated with myeloperoxidase: SE-HPLC, Superose-12 column, over incubation time
Description: (§1) FIGS. 7A and 7B are graphical representations of the results an evaluation of twenty- three mer peptide binding by SE-HPLC using a Superose-12 column. […] For example, the UV peak for the enzyme increased from 16% of total protein at 5 mm of incubation to 46% of total protein after 2 h incubation.
as §1, with “results of” for “results”, “of MPO-17 twenty-three” for “of twenty- three”, “mer polypeptide” for “mer peptide”, “5 min” for “5 mm”, “2 hours” for “2 h”

myeloperoxidase [2] = molecular target: T2, myeloperoxidase (Homo sapiens, UniProt P05164); assay: Histological staining of bone marrow tissue slides with biotinylated peptides; details: biotinylated peptide, anti-biotin antibody, ABC alkaline phosphatase kit, hematoxylin counterstain
T2 construct: Slides of bone marrow tissue were used since they are known to contain myeloperoxidase; from tissue; host or cells: bone marrow tissue slides
T2 sequence (P05164 49-745): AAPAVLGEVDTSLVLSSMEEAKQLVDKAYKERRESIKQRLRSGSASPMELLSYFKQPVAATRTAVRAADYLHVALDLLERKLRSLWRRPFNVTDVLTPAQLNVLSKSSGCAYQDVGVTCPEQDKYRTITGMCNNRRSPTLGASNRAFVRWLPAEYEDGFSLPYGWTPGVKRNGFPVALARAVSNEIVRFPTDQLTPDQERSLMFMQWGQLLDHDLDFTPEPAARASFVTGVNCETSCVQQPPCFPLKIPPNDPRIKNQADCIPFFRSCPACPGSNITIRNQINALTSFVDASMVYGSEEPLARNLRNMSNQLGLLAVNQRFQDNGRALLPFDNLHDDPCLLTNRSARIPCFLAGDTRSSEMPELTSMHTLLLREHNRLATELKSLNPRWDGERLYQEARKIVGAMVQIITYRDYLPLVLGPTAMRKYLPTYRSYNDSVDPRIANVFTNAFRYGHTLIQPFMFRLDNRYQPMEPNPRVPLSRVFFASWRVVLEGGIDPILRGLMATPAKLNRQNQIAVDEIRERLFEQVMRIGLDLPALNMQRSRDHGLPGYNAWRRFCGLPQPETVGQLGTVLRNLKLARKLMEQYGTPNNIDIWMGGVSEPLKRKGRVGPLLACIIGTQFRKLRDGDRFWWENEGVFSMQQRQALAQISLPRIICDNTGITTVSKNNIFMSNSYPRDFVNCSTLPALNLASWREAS
Description: FIGS. 9A-9D show the results of histological studies. Slides of bone marrow tissue were used since they are known to contain myeloperoxidase. Treatments were as follows: Figure 9A, anti-myeloperoxidase antibody followed with biotinylated secondary antibody; FIG. 9B, biotinylated twenty-three mer MPO-17 peptide; FIG. 9C, biotinylated twenty-three mer control peptide; FIG. 9D, incubated with both the biotinylated twenty-three mer MPO-17 peptide and the biotinylated twenty-three mer control peptide, without primary antibody. Each slide was treated with an anti-biotin antibody and the ABC alkaline phosphatase kit (Vector labs) and counterstained with hematoxylin.
The binding of identified peptides to components of plaques was confirmed histologically as follows. Peptide sequences found in multiple selected clones were used to produce peptides using synthetic techniques. Peptides may also be produced using recombinant DNA techniques. The peptides are conjugated with a detectable label, such as biotin using known protocols. The biotin-labeled peptides are used to confirm the binding specificity determined in Example 1 and Example 2 by immunohistochemical analyses of tissue such as vulnerable plaques or tissues rich in components vulnerable plaques that have been exposed to biotin-labeled peptides.
FIGS. 9A-9D show the results of such histological studies. […]

myeloperoxidase [3] = molecular target: T1, myeloperoxidase; assay: Binding of 99mTc-labeled phage clones to 125I-myeloperoxidase, separated on spin column / Sepharose 6B column; details: for Relative Binding (% bound): 99mTc-phage (10^10 pfu) with 125I-myeloperoxidase (750 ng), 15-30 minutes at 4 degrees Celsius, after subtraction of binding by control phage MPO-4; for Binding to 125I-myeloperoxidase compared with control clone MPO-4 (in words): shift of 125I to higher molecular weight fractions associated with 99mTc-phage
Description: (§2) FIG. 6 is a graphical representation of the results of studies of the binding of several phage clones to ^125-myeloperoxidase where the relative magnitude of binding was MPO-17>MPO-6>MPO-15 >MPO-1 >control (MPO-4). The consensus phage clones were radiolabeled with ^99mTc, using mercaptoacetyltriglycine (MAG3) as chelator, and the myeloperoxidase was iodinated using iodogen. The ^99mTc-phage were incubated with the ^125I-myeloperoxidase for 15-30 minutes, and then separated on a Sepharose 6B column. The shift of ^125I to the higher molecular weight fractions associated with ^99mTc-phage indicated binding.
After three rounds of selection, twenty phage clones were sequenced and four peptides occurring in more than one clone were identified. The phage clones representing the four sequences occurring in more than one clone plus a clone having a sequence that occurred in no other selected clone were amplified, titered and conjugated with NHS-MAG3 for radiolabeling with ^99mTc. See Winnard, P. Jr, et al., Preparation and use of NHS-MAG3 for technetium-99m labeling of DNA, Nucl. Med. Biol. 1997 July; 24(5):425-32. Myeloperoxidase was radiolabeled with ^125I via iodogen and a fixed amount (750 ng) was incubated with a constant number of phage plaque forming units (10^10) of each of the four consensus clones, plus a non-consensus clone as control, each radiolabeled with ^99mTc. Myeloperoxidase was added at what was estimated to be a 10-fold molar excess over peptide. After incubating for 15-30 minutes at 4 degrees Celsius, the binding of myeloperoxidase to each phage clone was determined by separating phage from myeloperoxidase using both a MicroSpin S-200 HR spin column and a Sepharose 6B open mini-column. The ^99mTc counts were used to identify the phage-containing fractions while the 125I counts in those fractions identified the concentration of bound myeloperoxidase. The peptide sequences of the 16 mer cysteine-constrained peptides in the display domain of the PVIII coat protein and the relative binding of four clones (MPO-1, MPO-6, MPO-15 and MPO-17) are listed in Table 2, below.
as §2, with “FIG. 8” for “FIG. 6”, “several bacteriophage” for “several phage”, “to ^125I-myeloperoxidase” for “to ^125-myeloperoxidase”, “was MPO-17>MPO-6>MPO-15>MPO-1>control” for “was MPO-17>MPO-6>MPO-15 >MPO-1 >control”, “using MAG3” for “using mercaptoacetyltriglycine (MAG3)”

[4] = system: LS-174T colon cancer cells; assay: Binding of 99mTc-labeled phage to LS-174T colon cancer cells in vitro; type: cell-based; details: for Relative Binding: Table 6, relative to control phage A3-12; for Binding compared to the control phage (A3-12): 6×10^5 cells per 50 μl, ~1.5×10^11 virions 99mTc-labeled phage
Description: For in vitro studies, LS-174T colon cancer cells, known to express the TAG-72 protein were incubated at a fixed ratio of cells (6×10^5 per 50 μl) to ^99mTc-labeled phage, ˜1.5×10^11 virions.

LS-174T tumor cubes = assay: Binding of 99mTc-labeled phage to LS-174T solid tumor cubes; details: ~1 mm tumor cubes incubated with serial dilutions of 99mTc-labeled phage
Description: Since TAG-72 expression is known to be higher in solid tumors than cells from culture, LS-174T cells were grown in nude mice, the resulting tumors removed and cut into ˜1 mm cubes for an assay using solid tumors. In addition to the labeled phage, the ^99mTc-labeled antibody was used to evaluate the level of antigen expression in tumor. For assay the tumor cubes were incubated with serial dilutions of ^99mTc-labeled phage or the ^99mTc-B72.3 antibody.

TAG-72 = assay: Competition of unlabeled phage with 99mTc-labeled B72.3 antibody on LS-174T tumor cubes; type: binding; details: 1 ng 99mTc-labeled B72.3 antibody, serial dilutions of unlabeled phage
Description: To test if phage A3-10 could compete with the B72.3, the LS-174T tumor cubes were incubated with 1 ng of ^99mTc-labeled B72.3 antibody and serial dilutions of unlabeled A3-10 phage. […] Thus, the phage is likely blocking the antibody, an indication of binding to the same target.

Compound | Relative Binding (% bound) (myeloperoxidase [3]) | Binding to 125I-myeloperoxidase compared with control clone MPO-4 (in words) (myeloperoxidase [3]) | Relative Binding [4] | further results
CC(C)C[C@H](NC(=O)[C@@H]1CSSC[C@H](NC(=O)[C@H](CCC(N)=O)NC(=O)CNC(=O)[C@H](CO)NC(=O)[C@@H](N)CCCNC(=N)N)C(=O)N[C@@H](Cc2c[nH]cn2)C(=O)N[C@@H](CC(=O)O)C(=O)N[C@@H](CC(=O)O)C(=O)N[C@@H]([C@@H](C)O)C(=O)N[C@@H](Cc2c[nH]c3ccccc23)C(=O)N[C@@H](CC(N)=O)C(=O)N1)C(=O)N[C@@H](C)C(=O)N[C@@H](CS)C(=O)N[C@H](C(=O)NCC(=O)NCC(=O)N[C@@H](CO)C(=O)NCC(=O)NCC(=O)NCC(=O)N[C@@H](CS)C(=O)O)C(C)C [MPO-17 twenty-three mer peptide] (H-RSGQCHDDTWNCLACVGGSGGGC-OH; disulfide 5-12 (inferred); N-terminus and C-terminus assumed) |  |  |  | Shift to a retention time associated with myeloperoxidase (myeloperoxidase [1]): gradual shift; UV peak for the enzyme (myeloperoxidase [1]; after 2 hours incubation of peptide with myeloperoxidase): 46 % of total protein; UV peak for the enzyme (myeloperoxidase [1]; at 5 min of incubation of peptide with myeloperoxidase): 16 % of total protein; Staining pattern (myeloperoxidase [2]): staining pattern similar to that seen with the anti-myeloperoxidase antibody
AMPVCSLDRKACTAYQ [MPO-1] | 3.9% | binding above the binding of the control clone MPO-4 |  | 
HVLGCSYATNSCAHNA (displayed on f88-4 phage pVIII; Chemically synthesized, clone MPO-5) [MPO-6, f88-4/Cys6 phage clone displaying this 16 mer cysteine-constrained peptide in the pVIII coat protein] | 5.8% | binding above the binding of the control clone MPO-4 |  | 
LKNYCRKCSNRCTPTG [A3-21] |  |  | 1 | 
MNYYCHQTTKTCRTHS [A3-12] |  |  | 1 | Phage bound with phage added (LS-174T tumor cubes): no change in phage bound except at the highest concentration
NLIWCRKEFARCTSDM [A3-19] |  |  | 1.5 | Binding compared to the control phage (A3-12) [4]: about 1.5 fold
NPGTCKDKWIECLLNG [A3-10] |  |  | 4.3 | Binding compared to the control phage (A3-12) [4]: 4,3 fold; Phage bound with phage added (LS-174T tumor cubes): linear increase in phage bound with phage added; Activity associated with the binding of 99mTc-B72.3 antibody (TAG-72): decreased with an increase in unlabeled phage added
QMKQCWVNTATCWGLSGGSGGGC (cysteine pairing not given here; also: biotinylated) [biotinylated for histology] |  |  |  | Shift to a retention time associated with myeloperoxidase (myeloperoxidase [1]): no shift; Staining pattern (myeloperoxidase [2]; listed as control peptide): Only the bkie hematoxylin stain is observed
RSGQCHDDTWNCLACV (displayed on f88-4 phage pVIII; Chemically synthesized, clone MPO-17) [f88-4/Cys6 phage clone displaying this 16 mer cysteine-constrained peptide in the pVIII coat protein] | 8% | highest binding |  | 
TVMLCNPMEQGCRWMC (displayed on f88-4 phage pVIII; Chemically synthesized, clone MPO-15) [f88-4/Cys6 phage clone displaying this 16 mer cysteine-constrained peptide in the pVIII coat protein] | 4.5% | binding above the binding of the control clone MPO-4 |  | Relative Binding (% bound) (myeloperoxidase [3]; listed as MPO-5): 4.5%
